The values that follow come from ChEMBL document CHEMBL1201862, “PubChem BioAssay data set” (2004).

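All cell lines were grown in 96-well plates and treated with compound for 48 hours. At the GI50, growth is halved.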 Activity calls are given as the source filed them. Rule as the data show it: active = GI50 up to about 1.1 µM and inactive = higher. Where only a bound is given, the exact number is not on record here.

Common to all, as to experiment: NCI-60 cell line screen, 48 h
The test system of test [1] is 786-0.
For test [2], the system named is CAKI-1.
The subject of test [3] is CCRF-CEM.
In test [4] the test system is HCC 2998.
The subject of test [5] is HCT-116.
Test [6] has as its system HL-60.
In test [7] the test system is HOP-92.
Test [8] has as its system HT-29.
Test [9] deals with KM12.
The subject of test [10] is MOLT-4.
Test [11] deals with NCI-H522.
Test [12] has as its system NCI/ADR-RES.
Test [13] relates to OVCAR-3.
The subject of test [14] is OVCAR-8.
Test [15] relates to SW-620.
Test [16] has as its system TK-10.
Test [17] concerns U-251.
Test [18] deals with UO-31.
Test [19] relates to EKVX.
The test system of test [20] is HOP-62.

On to `CCN(CC)CCNc1nc2ccc([N+](=O)[O-])cc2[n+]([O-])n1`, for which the GI50 is 20.1 µM (inactive) in [1]; 41.9 µM (inactive) in test [2]; 27 µM (inactive) in test [3]; 11.4 µM (inactive) in test [4]; 15.7 µM (inactive) in test [5]; 3.44 µM (inactive) in test [6]. Besides, the GI50 in [7] was 32 µM (inactive); in test [8] it was 7.91 µM (inactive); in test [9], 26.2 µM (inactive); in test [10], 18.9 µM (inactive); in [11], 28.1 µM (inactive); in [12], 24.3 µM (inactive). For the same compound, the GI50 was 30.3 µM (inactive) in [13]; 13.5 µM (inactive) in [14]; 16.2 µM (inactive) in [15]; 43.1 µM (inactive) in test [16]; 21.9 µM (inactive) in test [17]; 37.6 µM (inactive) in test [18].
`O=C(NCCO)Nc1c(C(F)(F)F)cc(-c2ccccc2)[nH]c1=O`: the GI50 in test [1], in [2], in test [3], in test [19], in [4] and in test [5] was > 100 µM (inactive) each time. Moreover, the GI50 is 19.8 µM (inactive) in test [6]; > 100 µM (inactive) in test [20]; > 100 µM (inactive) in [7]; > 100 µM (inactive) in test [8]; > 100 µM (inactive) in test [9]; > 100 µM (inactive) in test [10]. The GI50 in test [12], in test [13], in [14], in test [15], in test [16] and in [17] was > 100 µM (inactive) each time. The GI50 in [18] is > 100 µM (inactive).
In the case of `O[C@H]1[C@@H]2OC[C@@H](O)[C@H](OCc3ccccc3)[C@@](COCc3ccccc3)(O2)[C@@H]1OCc1ccccc1`, the GI50 in test [1] was 19.9 µM (inactive); in test [2], < 0.01 µM (active); in [3], 17.4 µM (inactive); in [19], 14.5 µM (inactive); in test [5] it was 20.1 µM (inactive); in test [6], 32.6 µM (inactive). For the same compound, the GI50 in test [20] is 17.2 µM (inactive); in test [7] it was 10.2 µM (inactive); in [8], 15.2 µM (inactive); in test [9], 17.2 µM (inactive); in test [10] it was 30.7 µM (inactive); in test [11], 13.7 µM (inactive). Also, the GI50 is 16.7 µM (inactive) in test [12]; 5.46 µM (inactive) in test [13]; 16.7 µM (inactive) in test [14]; 18.5 µM (inactive) in test [15]; 17.2 µM (inactive) in test [16]; 16 µM (inactive) in [17]. For the same compound, the GI50 in test [18] was 16.7 µM (inactive).
Take `COC(=O)C1CCC(=S)N1C(C)=O` (stereo unspecified): the GI50 in test [1], in test [2], in test [19], in test [4], in test [5] and in test [20] was > 100 µM (inactive) each time. The GI50 in test [7], in test [8], in test [9], in test [10], in test [11] and in test [12] was > 100 µM (inactive) each time. In addition, the GI50 in [13], in test [14], in test [15], in test [16], in test [17] and in test [18] was > 100 µM (inactive) in each case.
As for `N=C(N)NCCCC(NC(=O)c1c2ccccc2nc2ccccc12)C(=O)O` (stereo unspecified), the GI50 in [1], in test [2], in test [3], in test [19], in test [4] and in [5] was > 100 µM (inactive) in each case. Further, the GI50 in test [20], in [7], in test [8], in test [9], in [10] and in test [11] was > 100 µM (inactive) each time. Besides, the GI50 in test [12], in [13], in test [14], in test [15], in test [16] and in [17] was > 100 µM (inactive) in each case. In [18], the GI50 was > 100 µM (inactive).
Regarding `CC(=O)N1CC(=O)N2C(=O)/C(=C/c3ccc(Cl)cc3)N=C12`, the GI50 in test [1] was > 100 µM (inactive); in test [2] it was > 100 µM (inactive); in test [3], 45 µM (inactive); in test [19], > 100 µM (inactive); in test [4], > 100 µM (inactive); in test [5], > 100 µM (inactive). Also, the GI50 in test [6] was 27.7 µM (inactive); in test [20], > 100 µM (inactive); in test [7], > 100 µM (inactive); in [8], > 100 µM (inactive); in test [9], > 100 µM (inactive); in test [10] it was 48.3 µM (inactive). Also, the GI50 in test [12], in [13], in [14], in [15], in test [16] and in [17] was > 100 µM (inactive) in each case. Besides, in test [18], the GI50 was > 100 µM (inactive).
Take `Nc1[nH]c(=O)[nH]c(=O)c1Cc1cccc(Cl)c1`: the GI50 in [1] was > 100 µM (inactive); in [2] it was > 100 µM (inactive); in [19] it was > 100 µM (inactive); in test [4] it was 56 µM (inactive); in [5] it was 45.5 µM (inactive); in [20], > 100 µM (inactive). For the same compound, the GI50 in [7] is 36.3 µM (inactive); in [8], > 100 µM (inactive); in [9], 80.5 µM (inactive); in test [11], 88.9 µM (inactive); in test [12] it was > 100 µM (inactive); in test [13], > 100 µM (inactive). Also, the GI50 is > 100 µM (inactive) in test [14]; 96.2 µM (inactive) in [15]; 63.7 µM (inactive) in [16]; > 100 µM (inactive) in test [17]; 26.2 µM (inactive) in [18].
Regarding `COc1cccc2c(N)c3cccc(C(=O)NCCN(C)C)c3nc12`, the GI50 is 0.0339 µM (active) in test [1]; 0.103 µM (active) in test [2]; < 0.01 µM (active) in [3]; 0.174 µM (active) in test [19]; 0.179 µM (active) in [4]; 0.0748 µM (active) in test [5]. For the same compound, the GI50 in [20] was 0.0578 µM (active); in [7] it was 0.163 µM (active); in test [8], 0.053 µM (active); in [9], 0.252 µM (active); in test [10] it was < 0.01 µM (active); in [11] it was 0.0241 µM (active). For the same compound, the GI50 is 0.979 µM (active) in test [12]; 0.369 µM (active) in [13]; 0.134 µM (active) in [14]; 0.0968 µM (active) in test [15]; 0.439 µM (active) in test [16]; 0.159 µM (active) in [17]. The GI50 in [18] is 0.462 µM (active).
`O=NC1C(Cl)C2CC1C1C(Br)C(Br)CC21` (stereo unspecified): the GI50 in [1] is > 100 µM (inactive); in [2] it was > 100 µM (inactive); in test [3], 62.7 µM (inactive); in test [19] it was > 100 µM (inactive); in [5], > 100 µM (inactive); in test [6], > 100 µM (inactive). Also, the GI50 in [20], in [7], in test [8], in [9], in [10] and in test [11] was > 100 µM (inactive) each time. Besides, the GI50 in test [12], in test [13], in test [14], in test [15], in test [16] and in test [17] was > 100 µM (inactive) in each case. In [18], the GI50 was > 100 µM (inactive).
As to `CC(=O)/C(=C/n1ccc(=O)[nH]c1=S)C(=O)Nc1ccccc1C`, the GI50 in [1] is > 100 µM (inactive); in [2] it was > 100 µM (inactive); in test [19], > 100 µM (inactive); in [4], > 100 µM (inactive); in test [5] it was > 100 µM (inactive); in [6] it was 82.6 µM (inactive). Besides, the GI50 in test [20], in [7], in test [8], in test [9], in test [12] and in test [13] was > 100 µM (inactive) each time. Further, the GI50 in [14], in test [15], in test [16], in test [17] and in test [18] was > 100 µM (inactive) in each case.
`CNC1=Nc2ccccc2C(=S)N2CSC[C@@H]12`: the GI50 in test [1] was > 100 µM (inactive); in test [2], > 100 µM (inactive); in test [4], > 100 µM (inactive); in [5], > 100 µM (inactive); in test [20], > 100 µM (inactive); in test [7], 50.9 µM (inactive). The GI50 in test [8], in test [9], in test [10], in test [11], in [12] and in test [13] was > 100 µM (inactive) throughout. Besides, the GI50 in test [14], in [15], in [16], in test [17] and in test [18] was > 100 µM (inactive) throughout.
